{"source": "patent US20100143341A1", "about": "“THIENOPYRIMIDINES FOR PHARMACEUTICAL COMPOSITIONS” (DEVELOGEN AKTIENGESELLSCHAFT, priority 2005, published 2010)", "origin": "cited, not measured here", "key": {"human Mnk2 protein": {"molecular_target": "human Mnk2 protein (Homo sapiens, UniProt Q9HBH9)", "sequence (Q9HBH9 whole entry)": "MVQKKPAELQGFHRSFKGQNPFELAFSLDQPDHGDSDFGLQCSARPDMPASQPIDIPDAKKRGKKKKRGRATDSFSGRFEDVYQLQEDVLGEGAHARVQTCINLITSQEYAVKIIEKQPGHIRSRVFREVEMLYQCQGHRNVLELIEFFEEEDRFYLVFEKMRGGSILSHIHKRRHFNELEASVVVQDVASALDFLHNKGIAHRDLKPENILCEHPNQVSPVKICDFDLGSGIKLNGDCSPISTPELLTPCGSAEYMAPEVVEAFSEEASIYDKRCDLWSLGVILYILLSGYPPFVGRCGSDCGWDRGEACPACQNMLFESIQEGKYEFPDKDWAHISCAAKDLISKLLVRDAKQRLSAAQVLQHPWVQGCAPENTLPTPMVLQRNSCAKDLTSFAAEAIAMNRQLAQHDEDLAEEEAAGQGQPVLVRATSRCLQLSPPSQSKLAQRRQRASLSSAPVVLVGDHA", "details": "described in WO 02/103361"}, "phosphorylated eIF4E": {"tested_on": "phosphorylated eIF4E", "details": "cell culture cells transfected with Mnk2 (Mnk2a or Mnk2b) or Mnk1"}}, "data": [{"smiles": "COC(=O)c1ccc(O)cc1", "note": "[4-hydroxybenzoic acid methyl ester]", "values": [{"measurement": "binds the human Mnk2 protein", "setting": "human Mnk2 protein", "value": "binds"}]}, {"smiles": "Nc1ncnc2n[nH]c(Nc3ccc(F)cc3)c12", "note": "[CGP57380]", "values": [{"measurement": "reduction of phosphorylated eIF4E", "setting": "phosphorylated eIF4E", "value": "strong reduction"}]}]}
